One test deals with IDH2 R140Q (Homo sapiens (Human), UniProt P48735, R140Q). Briefly: In vitro assay for IDH2m R140Q inhibitors, cofactor depletion assay. The format is biochemical. The settings on record: IDH2 R140Q enzyme. The method in brief:
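Remaining cofactor measured fluorimetrically: diaphorase/resazurin Stop Mix […], halting the reaction. Before that, mutant enzyme and compound sat 1 h at RT, then substrate mix (4 μM NADPH, 1.6 mM α-KG) was added for 16 h at RT.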

Another test has as its system HT1080 cells. Briefly: Cellular assay for IDH1m R132C inhibitors, 2-HG by LC-MS in HT1080 cells. The test is classed as cell-based. The settings on record: Homo sapiens, HT-1080. In outline:
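2-HG levels were measured by LC-MS in culture medium sampled 48 h after compound addition (0.2% DMSO) to HT1080 cells seeded overnight at 5000 cells/well. A CellTiter-Glo luminescence read at 72 h gave cell viability.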

The target in test [1] is IDH1-R132H homodimer enzyme (Homo sapiens (Human), UniProt O75874, R132H). Briefly: In vitro assay IDH1-R132H homodimer, NADPH depletion assay with NADPH/NADP preincubation. The format is biochemical. The settings on record: 5 μM NADPH and 37.5 μM NADP. The method in brief: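 Compounds were added from DMSO at 50× final concentration, and the mutant enzyme was incubated 60 min at room temperature after starting with a substrate mix holding NADPH and 5 mM alpha-ketoglutarate. Residual cofactor, read by fluorescence after excess diaphorase and resazurin, reflects enzyme turnover.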

The text below walks through data of patent US10028961B2, “Therapeutically active compounds and their methods of use” (AGIOS PHARMACEUTICALS, INC., priority 2013, dated 2018).

Sequence of IDH2 R140Q (P48735 40-452 R140Q): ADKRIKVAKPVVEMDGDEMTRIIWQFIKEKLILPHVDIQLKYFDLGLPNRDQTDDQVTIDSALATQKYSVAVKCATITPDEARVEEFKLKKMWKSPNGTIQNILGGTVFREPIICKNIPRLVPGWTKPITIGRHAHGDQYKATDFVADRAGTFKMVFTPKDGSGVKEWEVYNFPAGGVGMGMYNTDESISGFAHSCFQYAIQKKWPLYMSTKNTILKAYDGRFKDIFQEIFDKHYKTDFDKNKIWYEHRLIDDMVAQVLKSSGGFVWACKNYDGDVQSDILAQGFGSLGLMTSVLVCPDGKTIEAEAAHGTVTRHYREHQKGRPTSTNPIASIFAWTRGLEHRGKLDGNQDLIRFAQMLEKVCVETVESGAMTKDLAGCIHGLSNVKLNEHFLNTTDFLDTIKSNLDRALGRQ
Sequence of IDH1-R132H homodimer enzyme (O75874 whole entry R132H): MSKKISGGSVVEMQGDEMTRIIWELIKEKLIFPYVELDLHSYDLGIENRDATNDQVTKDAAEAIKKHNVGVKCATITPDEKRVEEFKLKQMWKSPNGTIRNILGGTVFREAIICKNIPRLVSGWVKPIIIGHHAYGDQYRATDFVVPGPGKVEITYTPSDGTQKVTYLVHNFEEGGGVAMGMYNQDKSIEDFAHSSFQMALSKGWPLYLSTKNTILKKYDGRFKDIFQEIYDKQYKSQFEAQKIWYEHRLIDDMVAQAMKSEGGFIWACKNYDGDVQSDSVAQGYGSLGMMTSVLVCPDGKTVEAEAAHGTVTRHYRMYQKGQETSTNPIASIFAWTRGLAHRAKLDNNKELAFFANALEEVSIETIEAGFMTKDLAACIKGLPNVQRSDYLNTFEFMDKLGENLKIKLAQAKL

Take `CC(F)(F)c1cccc(-c2nc(NC3CCC(F)(F)C3)nc(NC3CCC(F)(F)C3)n2)n1` (stereo not drawn) [Compound 105]: the IC50 (at IDH2 R140Q; with HT1080 cells; in test [1]) was less than 50 nM each time.
As to `FC1(F)CCC(Nc2nc(Nc3ccnc(C(F)(F)F)c3)nc(-c3cccc(Cl)n3)n2)C1` (stereo not drawn) [Compound 115], the figures for the IC50 (against IDH2 R140Q; in the test on HT1080 cells; in test [1]) were less than 50 nM, 100 to 1000 nM and less than 50 nM, respectively.
For the compound `C[C@@H](Nc1nc(N[C@H](C)C2CC2)nc(-n2ccc(C(F)(F)F)n2)n1)C1CC1` [Compound 121], the results for the IC50 (against IDH2 R140Q; in the test with HT1080 cells; in test [1]) were less than 50 nM, less than 50 nM and 50 to 100 nM, respectively.
On to `Fc1cc(F)cc(Nc2nc(NC3CCC(F)(F)C3)nc(-c3cccc(C(F)(F)F)n3)n2)c1` (stereo not drawn) [Compound 123], for which the IC50 on IDH2 R140Q was less than 50 nM; in the test on HT1080 cells it was 100 to 1000 nM; in test [1] it was less than 50 nM.
As for `N#Cc1cc(F)cc(Nc2nc(NC3CCC(F)(F)C3)nc(-c3cccc(C(F)(F)F)n3)n2)c1` (stereo not drawn) [Compound 124], the IC50 (on IDH2 R140Q; in test [1]) was less than 50 nM in each case.
On to `FC1(F)CC(Nc2nc(NC3CC(F)(F)C3)nc(-n3ccc(C(F)(F)F)n3)n2)C1` [Compound 126], for which the IC50 against IDH2 R140Q was less than 50 nM; in test [1] it was 50 to 100 nM.
For `FC1(F)CC(Nc2nc(NC3CC(F)(F)C3)nc(-c3nc(C(F)(F)F)cs3)n2)C1` [Compound 128], the IC50 (against IDH2 R140Q; with HT1080 cells; in test [1]) was less than 50 nM throughout.
Turning to `Clc1cccc(-c2nc(NC(C3CC3)C3CC3)nc(NC(C3CC3)C3CC3)n2)n1` [Compound 131], the IC50 at IDH2 R140Q is less than 50 nM; in test [1], 50 to 100 nM.
As to `CC(Nc1nc(Nc2ccnc(C3(C#N)CC3)c2)nc(-c2cccc(Cl)n2)n1)C(F)(F)F` (stereo not drawn) [Compound 134], the IC50 (against IDH2 R140Q; in the test on HT1080 cells; in test [1]) was less than 50 nM in each case.
In the case of `FC(F)c1cccc(-c2nc(NC3CC(F)(F)C3)nc(NC3CC(F)(F)C3)n2)n1` [Compound 145], the results for the IC50 (at IDH2 R140Q; in the test with HT1080 cells; in test [1]) were less than 50 nM, 100 to 1000 nM and less than 50 nM, respectively.
On to `FC1(F)CCC(Nc2nc(NC3CCC(F)(F)C3)nc(-n3ccc(C(F)(F)F)n3)n2)C1` (stereo not drawn) [Compound 146], for which the IC50 (on IDH2 R140Q; in test [1]) was less than 50 nM in each case.
In the case of `FC1(F)CCC(Nc2nc(NC3CCC(F)(F)CC3)nc(-c3cncc(Cl)n3)n2)CC1` [Compound 147], the IC50 is less than 50 nM on IDH2 R140Q, 100 to 1000 nM with HT1080 cells and 50 to 100 nM in test [1].
As to `FC1(F)CC(Nc2nc(NC3CC(F)(F)C3)nc(-c3cccc(C(F)(F)F)n3)n2)C1` [Compound 149], the figures for the IC50 (against IDH2 R140Q; in the test with HT1080 cells; in test [1]) were less than 50 nM, 50 to 100 nM and less than 50 nM, respectively.
`N#CC1(c2cc(Nc3nc(NC4CCC(F)(F)C4)nc(-c4cccc(C(F)(F)F)n4)n3)ccn2)CC1` (stereo not drawn) [Compound 151]: the IC50 (at IDH2 R140Q; in test [1]) was less than 50 nM each time.
On to `FC1(F)CCC(Nc2nc(NC3Cc4ccccc4C3)nc(-c3cccc(C(F)(F)F)n3)n2)C1` (stereo not drawn) [Compound 152], for which the half-inhibitory concentration (IC50) (on IDH2 R140Q; in test [1]) was less than 50 nM throughout.
As to `CC(C)(C)Nc1nc(Nc2ccnc(C#N)c2)nc(-c2cccc(C(F)(F)F)n2)n1` [Compound 162], the IC50 (on IDH2 R140Q; in test [1]) was less than 50 nM throughout.
For the compound `N#Cc1cc(F)cc(Nc2nc(NC3CCC(F)(F)CC3)nc(-c3cccc(C(F)(F)F)n3)n2)c1` [Compound 164], the IC50 on IDH2 R140Q was less than 50 nM; in test [1] it was 50 to 100 nM.
The corresponding values for `FC1(F)CC(Nc2nc(NC3CC(F)(F)C3)nc(-c3csc(C(F)(F)F)n3)n2)C1` [Compound 170] are less than 50 nM and 100 to 1000 nM.
Regarding `FC1(F)CCC(Nc2nc(NC3CCC(F)(F)CC3)nc(-n3ccc(C(F)(F)F)n3)n2)CC1` [Compound 176], the IC50 at IDH2 R140Q is less than 50 nM; with HT1080 cells, 100 to 1000 nM; in test [1], 100 to 1000 nM.
For `N#Cc1cc(Nc2nc(NC3CCC(F)(F)C3)nc(-c3cccc(C(F)(F)F)n3)n2)ccn1` (stereo not drawn) [Compound 181], the IC50 was less than 50 nM on IDH2 R140Q, 100 to 1000 nM in the test on HT1080 cells and less than 50 nM in test [1].
Consider `FC1(F)CCC(Nc2nc(NC3Cc4ccc(Cl)cc4C3)nc(-c3cccc(C(F)(F)F)n3)n2)C1` (stereo not drawn) [Compound 182], for which the IC50 was less than 50 nM at IDH2 R140Q and 100 to 1000 nM in test [1].
`CC(F)(F)c1cccc(-c2nc(NC3CC(F)(F)C3)nc(NC3CC(F)(F)C3)n2)n1` [Compound 187]: the IC50 was less than 50 nM at IDH2 R140Q and 100 to 1000 nM in test [1].
`FC1(F)CCC(Nc2nc(NC3CC4(C3)CC(F)(F)C4)nc(-c3cccc(C(F)(F)F)n3)n2)C1` (stereo not drawn) [Compound 191]: the IC50 against IDH2 R140Q was less than 50 nM; in the test on HT1080 cells, 100 to 1000 nM; in test [1], 100 to 1000 nM.
As for `FC1(F)CCC(Nc2nc(Nc3ccnc(C(F)(F)F)c3)nc(-c3cccc(C(F)(F)F)n3)n2)CC1` [Compound 192], the IC50 at IDH2 R140Q is less than 50 nM; in the test with HT1080 cells, 100 to 1000 nM; in test [1], 100 to 1000 nM.
For `Fc1ccc([C@H]2C[C@@H](Nc3nc(NC4CCC(F)(F)C4)nc(-c4cccc(C(F)(F)F)n4)n3)C2)cc1` (stereo partly drawn) [Compound 199], the IC50 on IDH2 R140Q is less than 50 nM; in test [1], 100 to 1000 nM.
For `N#Cc1cc(Nc2nc(NC3CC(F)(F)C3)nc(-c3cccc(C(F)(F)F)n3)n2)ccn1` [Compound 213] the same measures were less than 50 nM and 50 to 100 nM.
For `CC(CC#N)Nc1nc(N[C@H](C)C2CC2)nc(-c2cccc(C(F)(F)F)n2)n1` (stereo partly drawn) [Compound 214] the same measures were less than 50 nM and 100 to 1000 nM.
For `FC1(F)CCC(Nc2nc(NC3CCN(c4ccccn4)C3)nc(-c3cccc(C(F)(F)F)n3)n2)C1` (stereo not drawn) [Compound 222] the same measures were 100 to 1000 nM and 100 to 1000 nM.
On to `FC1(F)CCC(Nc2nc(NC3CCC(F)(F)CC3)nc(-c3csc(C(F)(F)F)n3)n2)CC1` [Compound 223], for which the IC50 is less than 50 nM against IDH2 R140Q and 100 to 1000 nM in test [1].
Regarding `FC(F)c1cccc(-c2nc(NC3CCC(F)(F)CC3)nc(NC3CCC(F)(F)CC3)n2)n1` [Compound 224], the IC50 on IDH2 R140Q is less than 50 nM; in the test on HT1080 cells, 100 to 1000 nM; in test [1] it was 100 to 1000 nM.
On to `N#CC1(c2cc(Nc3nc(NCC(F)(F)F)nc(-c4cccc(C(F)(F)F)n4)n3)ccn2)CC1` [Compound 226], for which the IC50 is less than 50 nM at IDH2 R140Q and 100 to 1000 nM in test [1].
As for `FC1(F)CCC(Nc2nc(NC3CCN(c4ncccn4)C3)nc(-c3cccc(C(F)(F)F)n3)n2)C1` (stereo not drawn) [Compound 227], the IC50 (at IDH2 R140Q; in test [1]) was 100 to 1000 nM each time.
Turning to `N#CC1(c2cc(Nc3nc(NC4CC5(C4)CC(F)(F)C5)nc(-c4cccc(C(F)(F)F)n4)n3)ccn2)CC1` [Compound 229], the IC50 against IDH2 R140Q was less than 50 nM; with HT1080 cells it was 100 to 1000 nM; in test [1], 100 to 1000 nM.
Regarding `CC(C)(CC#N)Nc1nc(Nc2ccnc(C(C)(F)F)c2)nc(-c2cccc(C(F)(F)F)n2)n1` [Compound 231], the IC50 against IDH2 R140Q is less than 50 nM; with HT1080 cells, greater than 1000 nM; in test [1], 100 to 1000 nM.
The corresponding values for `FC1(F)CCC(Nc2nc(NC3CCC(F)(F)C3)nc(-c3nccc(C(F)(F)F)n3)n2)C1` (stereo not drawn) [Compound 237] are less than 50 nM, 100 to 1000 nM and 100 to 1000 nM.
With `CC(C)(C#N)Nc1nc(Nc2ccnc(C(C)(F)F)c2)nc(-c2cccc(C(F)(F)F)n2)n1` [Compound 247], the IC50 against IDH2 R140Q is less than 50 nM; in test [1] it was 100 to 1000 nM.
For `FC1(F)CCC(Nc2nc(NC3CCC(F)(F)C3)nc(-c3cccc(OC(F)(F)F)n3)n2)C1` (stereo not drawn) [Compound 252] the same measures were less than 50 nM and greater than 1000 nM.
For `CC(C#N)Nc1nc(Nc2ccnc(C(C)(F)F)c2)nc(-c2cccc(C(F)(F)F)n2)n1` (stereo not drawn) [Compound 253] the same measures were less than 50 nM and 100 to 1000 nM.
For `FC1(F)CC(Nc2nc(NC3CC(F)(F)C3)nc(-c3nccc(C(F)(F)F)n3)n2)C1` [Compound 256] the same measures were less than 50 nM and greater than 1000 nM.
Turning to `N#CC1(c2cc(Nc3nc(NC4CCC(F)(F)C4)nc(-c4nccc(C(F)(F)F)n4)n3)ccn2)CC1` (stereo not drawn) [Compound 261], the IC50 is less than 50 nM at IDH2 R140Q and greater than 1000 nM in test [1].
Take `Fc1ccc([C@H]2C[C@@H](Nc3nc(N[C@H]4C[C@@H](c5ccc(F)cc5)C4)nc(-c4cccc(C(F)(F)F)n4)n3)C2)cc1` [Compound 272]: the values for the IC50 (on IDH2 R140Q; in the test with HT1080 cells; in test [1]) were 100 to 1000 nM, 100 to 1000 nM and greater than 1000 nM, respectively.
Turning to `FC1(F)CCC(Nc2nc(NC3CCC(F)(F)CC3)nc(-c3nccc(C(F)(F)F)n3)n2)CC1` [Compound 293], the IC50 is 50 to 100 nM on IDH2 R140Q and greater than 1000 nM in test [1].

A word on the IC50: it is the point on the concentration scale where inhibition reaches its midpoint.
